Patent US20070148051A1, “Chemical volatilization device” (Dainihon Jochugiku Co., Ltd., priority 2005, published 2007)

Legend:
[1] = tested on: mosquitoes; assay: Experiment Example 1: chemical volatilization device activated, mosquito control; assay type: in vivo; settings: 40 mg Compound C dissolved in kerosene retained in chemical retainer, 1200 rpm, over about 120 hours
From the text: Two-dimensional mesh-like chemical-retaining fibers 2 were woven on both the upper and lower sides using twisted polyester fibers, and supportive connecting chemical-retaining fibers 3 (upper and lower widths: 3 mm), comprised of polyester fibers, were arranged between both sides based on a diagonal structure according to the constitution of the aforementioned (6) as shown in FIG. 6 to produce a disc-like chemical retainer 1 having an overall thickness in the vertical direction of 4.0 mm and an outer diameter of 4.0 cm.
The chemical retainer 1 was housed in a protective case 4 made of polycarbonate (outer diameter: 5.0 cm, thickness: 8 mm), and the protective case 4 employed a roughly circular cross-section for circumferential retaining frames 41.
In this type of chemical retainer 1, a chemical solution, in which 40 mg of Compound C (4-methoxymethyl-2,3,5,6-tetrafluorobenzyl-2,2-dimethyl-3-(1-propenyl)cyclopropane carboxylate) were dissolved in kerosene, was retained in said chemical retainer 1, and after housing in the protective case 4, was activated for 120 hours at a rotating speed of 1200 rpm.

[2] = tested on: harmful insects such as mosquitoes and midges; assay: Experiment Example 2: device suspended in a doghouse, insecticidal effects; assay type: in vivo; settings: 70 mg Compound A retained, 1400 rpm, 8 hours per day for about 30 days
From the text: Two-dimensional mesh-like chemical-retaining fibers 2 were woven using twisted polyester fibers, and supportive connecting chemical-retaining fibers 3 (upper and lower widths: 2.5 mm), comprised of nylon fibers, were arranged in a state in which a columnar structure and a diagonal structure were overlapped based on the constitution of the aforementioned (8) shown in FIG. 8 to produce a disc-like chemical retainer 1 having an overall thickness in the vertical direction of 4.2 mm and an outer diameter of 4.5 cm.
70 mg of Compound A (2,3,5,6-tetrafluorobenzyl-2,2-dimethyl-3-(2,2-dichlorovinyl)cyclopropane carboxylate) was retained instead of the chemical used in Experiment Example 1 and activated for 240 hours.
This chemical retainer 1 was housed in the protective case 4 of Experiment Example 1, activated for 8 hours per day by suspending in a doghouse at a rotating speed of 1400 rpm, and said activation was continued for about 30 days.

SMILES | control of mosquitoes during activation [1] | insecticidal effects against harmful insects during continuous activation [2]
CC=CC1C(C(=O)OCc2c(F)c(F)c(COC)c(F)c2F)C1(C)C (centres unmarked) [Compound C, 4-methoxymethyl-2,3,5,6-tetrafluorobenzyl-2,2-dimethyl-3-(1-propenyl)cyclopropane carboxylate] | effectively controlled | 
CC1(C)C(C=C(Cl)Cl)C1C(=O)OCc1c(F)c(F)cc(F)c1F (centres unmarked) [Compound A, 2,3,5,6-tetrafluorobenzyl-2,2-dimethyl-3-(2,2-dichlorovinyl) cyclopropane carboxylate] |  | stable insecticidal effects
